Entries after “also recorded” stand apart in the source; their conditions may differ.
What was measured:
Type in all cases: in vivo, rat
Long Evans Hooded rats [1] = test: Elevated Plus Maze (EPM) test after developmental Pb^2+ exposure, acute i.p. drug; settings: for anxiolytic OTC ratio, sensitivity to drug / EPM track plot and group mean activity (10-min): 43 mg/kg i.p.
Long Evans Hooded rats [2] = test: Attention Set-Shift Test (ASST) after developmental Pb^2+ exposure with taurine co-treatment; settings: for Pb^2+-induced frontoexecutive dysfunctions (ASST task performance), overall: both sexes, 150 ppm Pb^2+ + 0.05% Taurine co-treatment; for errors-to-criterion (ETC), odor (OD) and digging medium (MD) simple discrimination training / trials-to-criterion (TTC), odor (OD) and digging medium (MD) simple discrimination training: vs Control and Perinatal; for rate-of-learning cumulative record across ASST stages: 150 ppm Pb^2+ + Taurine 0.05%
[3] = test system: prelimbic (PrL), infralimbic (IL), orbital ventral frontal (OV), orbital ventro-lateral (OVL), and hippocampal (HP) brain regions; test: LC/MS GABA:Neurotransmitter and Taurine:Neurotransmitter ratios in brain sub-regions after the ASST; settings: male rats, OVL (all four brain regions), taurine co-treatment
Description: Immediately following the ASST, rats were deeply anesthetized using Isoflurane, then sacrificed, and their brains were extracted in cold physiological buffered saline (PBS) pH 7.4 in under 2-min. The rat whole brains were then transferred into a coronal sectioning steel brain matrix for 175-300 g rodents (Stoelting, Inc. Wood Dale, Ill.). […] The collected brain regions were stored at −80° C. until ready for subsequent neurochemical assessments.
The brain sub-regions were then manually homogenized with sterile glass homogenizers (i.e., total volume 3 mL) using a 10 mg/100 μL (1:10) dilution of 100% acetonitrile ([…]) (Sigma-Aldrich, St Louis, Mo.) as a miscible (i.e., fully dissolvable solution) with a dielectric constant to study the separation of chemicals by mass charge and polarity. Post homogenization, samples were sonicated for 30 sec with a pulse on:off time of 10 sec at an amplitude of 20%, then centrifuged at […] for 5-min at 4° C., and the supernatant collected and stored at −20° C. until ready for LC/MS. […] The mass/charge (m/z) values of neurotransmitters were monitored and peak heights were obtained to compare the amount of neurotransmitters within- and between-samples. The elution was performed with a flow rate of 0.2 mL/min and the neurotransmitters that were eluted from the column were detected in the positive ion mode. […]

[4] = female rats, 150 ppm Pb^2+ + 0.05% Taurine
[5] = female rats, 150 ppm Pb^2+ + 0.05% Taurine in drinking water to PND 22
[6] = female rats, 150 ppm Pb^2+ + 0.05% Taurine, most recovery at ED and ED-Rev
[7] = male rats, 150 ppm Pb^2+ + 0.05% Taurine
[8] = male rats, 150 ppm Pb^2+ + 0.05% Taurine in drinking water to PND 22
[9] = male rats, 150 ppm Pb^2+ + 0.05% Taurine in drinking water to PND 22, listed as taurine
[10] = male rats, 150 ppm Pb^2+ + 0.05% Taurine, listed as taurine

## NCCC(=O)O [TD-101, 3-aminopropanoic acid]
Long Evans Hooded rats [1]; control female rats
  anxiolytic OTC ratio, sensitivity to drug: most sensitive
Long Evans Hooded rats [1]; control male rats
  anxiolytic OTC ratio, sensitivity to drug: most sensitive

## NCS(=O)(=O)O [TD-102]
Long Evans Hooded rats [1]; Peri-22 1,000 ppm females
  anxiolytic OTC ratio, sensitivity to drug: sensitive
Long Evans Hooded rats [1]; Peri-22 1,000 ppm male rats
  anxiolytic OTC ratio, sensitivity to drug: only sensitive
Long Evans Hooded rats [1]; control male rats
  anxiolytic OTC ratio, sensitivity to drug: most sensitive

## Nc1ccccc1S(=O)(=O)O [TD-103, 2-aminobenzenesulfonic acid]
Long Evans Hooded rats [1]; control female rats
  anxiolytic OTC ratio, sensitivity to drug: most sensitive

## NCCS(=O)(=O)O [Taurine, 2-aminoethanesulfonic acid]
Long Evans Hooded rats [2]
  Pb^2+-induced frontoexecutive dysfunctions (ASST task performance), overall: recovered these frontoexecutive dysfunctions to levels equivalent to Control rats
Long Evans Hooded rats [2]; listed as taurine
  Pb^2+-induced frontoexecutive dysfunctions (ASST task performance), overall: effective in mitigating or at least reducing most; also recorded: sex-dependent recovery
Long Evans Hooded rats [2]; [4]
  ETC, reacquisition learning: no differences
  TTC, reacquisition learning: no differences
Long Evans Hooded rats [2]; [5]
  errors-to-criterion (ETC), OD and MD simple discrimination training: no differences
  trials-to-criterion (TTC), OD and MD simple discrimination training: no differences
Long Evans Hooded rats [2]; [6]
  ASST performance, ETC: recovered these deficits to performance levels comparative to Control males; also recorded: recovered ASST performance to rates comparable to Control female rats
  ASST performance, TTC: recovered these deficits to performance levels comparative to Control males; also recorded: recovered ASST performance to rates comparable to Control female rats
Long Evans Hooded rats [2]; [7]
  ETC, reacquisition learning (CD-Reacquisition and ID-Reacquisition): fewer ETC errors
  TTC, reacquisition learning (CD-Reacquisition and ID-Reacquisition): recovery from the TTC reacquisition learning impairment
Long Evans Hooded rats [2]; [8]
  errors-to-criterion (ETC), odor (OD) and digging medium (MD) simple discrimination training: significant difficulty in learning
  trials-to-criterion (TTC), odor (OD) and digging medium (MD) simple discrimination training: significant difficulty in learning
Long Evans Hooded rats [2]; [9]
  errors-to-criterion (ETC), odor (OD) and digging medium (MD) simple discrimination training: caused learning delays
  trials-to-criterion (TTC), odor (OD) and digging medium (MD) simple discrimination training: caused learning delays
Long Evans Hooded rats [2]; [10]
  ETC, reacquisition learning (CD-Reacquisition and ID-Reacquisition): recovered reacquisition learning performance deficits to rates comparable to Control male rats
  TTC, reacquisition learning (CD-Reacquisition and ID-Reacquisition): recovered reacquisition learning performance deficits to rates comparable to Control male rats
Long Evans Hooded rats [2]; male rats, 150 ppm Pb^2+ + 0.05% Taurine, most recovery at CD-Rev and ID
  ASST performance, ETC: recovered these deficits to performance levels comparative to Control males; also recorded: recovered ASST performance to rates comparable to Control male rats
Long Evans Hooded rats [2]; male rats, 150 ppm Pb^2+ + 0.05% Taurine, most recovery at CD-Rev, ID, ED
  ASST performance, TTC: recovered these deficits to performance levels comparative to Control males; also recorded: recovered ASST performance to rates comparable to Control male rats
Long Evans Hooded rats [2]; single representative female rat
  rate-of-learning cumulative record across ASST stages: quicker rate-of-learning with less sequential errors
Long Evans Hooded rats [2]; single representative female rat, listed as taurine
  rate-of-learning cumulative record across ASST stages: significant improvements
Long Evans Hooded rats [2]; single representative male rat
  rate-of-learning cumulative record across ASST stages: quicker rate-of-learning with less sequential errors
Long Evans Hooded rats [2]; single representative male rat, listed as taurine
  rate-of-learning cumulative record across ASST stages: significant improvements
[3]
  Taurine:Dopamine levels: elevated
Long Evans Hooded rats [1]; 43 mg/Kg i.p. 15-min prior to testing, PND 36-45, both genders
  Pb^2+-induced anxiogenic response in the EPM: ameliorated in a gender-specific manner
Long Evans Hooded rats [1]; Control (0 ppm) female rats
  EPM track plot and group mean activity (10-min): increased anxiolytic response
Long Evans Hooded rats [1]; Control (0 ppm) male rats
  EPM track plot and group mean activity (10-min): increased anxiolytic response
